From patent US20110224160A1, “Use of Escin for Treatment of Type IV Hypersensitivity Reaction” (MARINOMED BIOTECHNOLOGIE GMBH, priority 2008, published 2011)

Key:
[1] = test system: oxazolone induced topical inflammation in BALB/c mice; test: oxazolone induced contact dermatitis model (ear swelling); type: in vivo
Protocol: FIG. 1: Efficacy of escin in an oxazalone induced contact dermatitis model. 3 mg/kg of escin were applied intraperitoneally (ip.) 6 h before challenge, 0.9% saline solution served as a vehicle. […] Bars represent the mean of five animals, SEM is indicated.
Escin was evaluated for anti-inflammatory activity by ip. injection in the oxazolone induced topical inflammation in BALB/c mice, which is a model of type IV hypersensitivity reaction, in particular contact dermatitis. The swelling of the challenged ear in comparison to the unchallenged control was determined as a parameter for induced contact dermatitis.

[2] = test system: LPS mediated release of TNF alpha; test: LPS mediated release of TNF alpha in primary human blood; type: cell-based
[3] = test system: strong hypersensitivity reactions; test: strong hypersensitivity reactions in an in vivo model

## escin
[1]; BALB/c mice, escin 3 mg/kg ip., 6 hours after oxazolone application, challenged vs unchallenged ear
  inhibition of oxazolone induced ear swelling: significant inhibition
[1]; mouse model of contact dermatitis
  induced topical inflammation in a mouse model of contact dermatitis: reduced induced topical inflammation
[2]
  LPS mediated release of TNF alpha: inhibits dose-dependently
[3]
  effects of strong hypersensitivity reactions: reduces the effects of strong hypersensitivity reactions
